Measured values reported in the NIST ThermoML archive (doi:10.1016/j.jct.2019.03.023).
“And” between values parts separate entries of the source, which are not always exact repeats. Equal values may be shown once. Numbers after ± are expanded uncertainties.

Assay: molar heat capacity at constant volume
Settings: Vacuum adiabatic calorimetry

CC(C)O [propan-2-ol]
Fluid (supercritical or subcritical phases)
Settings | molar heat capacity at constant volume
506.89 K, Mass density=324.5 kg/m3 | 348.43 ± 10 J/K/mol and 347.05 ± 10 J/K/mol
506.89 K, Mass density=343.1 kg/m3 | 330.28 ± 9.9 J/K/mol
506.97 K, Mass density=329.2 kg/m3 | 330.22 ± 9.9 J/K/mol
506.98 K, Mass density=288.99 kg/m3 | 360.33 ± 11 J/K/mol
506.98 K, Mass density=324.5 kg/m3 | 352.64 ± 11 J/K/mol
506.98 K, Mass density=343.1 kg/m3 | 333.83 ± 10 J/K/mol
507.07 K, Mass density=288.99 kg/m3 | 365.74 ± 11 J/K/mol
507.07 K, Mass density=324.5 kg/m3 | 346.75 ± 10 J/K/mol
507.08 K, Mass density=343.1 kg/m3 | 331.96 ± 10 J/K/mol
507.11 K, Mass density=329.2 kg/m3 | 342.54 ± 10 J/K/mol
507.17 K, Mass density=288.99 kg/m3 | 355.1 ± 11 J/K/mol
507.17 K, Mass density=293.3 kg/m3 | 358.29 ± 11 J/K/mol
507.17 K, Mass density=324.5 kg/m3 | 351.56 ± 11 J/K/mol
507.17 K, Mass density=343.1 kg/m3 | 333.89 ± 10 J/K/mol
507.2 K, Mass density=329.2 kg/m3 | 339.6 ± 10 J/K/mol
507.26 K, Mass density=288.99 kg/m3 | 361.53 ± 11 J/K/mol
507.26 K, Mass density=324.5 kg/m3 | 348.79 ± 10 J/K/mol
507.26 K, Mass density=343.1 kg/m3 | 336.65 ± 10 J/K/mol
507.3 K, Mass density=329.2 kg/m3 | 339.42 ± 10 J/K/mol
507.35 K, Mass density=293.3 kg/m3 | 367 ± 11 J/K/mol
507.35 K, Mass density=324.5 kg/m3 | 351.56 ± 11 J/K/mol
507.36 K, Mass density=343.1 kg/m3 | 338.58 ± 10 J/K/mol
507.4 K, Mass density=329.2 kg/m3 | 335.93 ± 10 J/K/mol
507.45 K, Mass density=293.3 kg/m3 | 363.82 ± 11 J/K/mol
507.45 K, Mass density=324.5 kg/m3 | 357.02 ± 11 J/K/mol
507.45 K, Mass density=343.1 kg/m3 | 335.69 ± 10 J/K/mol
507.5 K, Mass density=329.2 kg/m3 | 343.02 ± 10 J/K/mol
507.54 K, Mass density=293.3 kg/m3 | 371.39 ± 11 J/K/mol
507.54 K, Mass density=324.5 kg/m3 | 349.09 ± 10 J/K/mol
507.54 K, Mass density=343.1 kg/m3 | 337.79 ± 10 J/K/mol
507.59 K, Mass density=329.2 kg/m3 | 338.94 ± 10 J/K/mol
507.63 K, Mass density=293.3 kg/m3 | 367.06 ± 11 J/K/mol
507.63 K, Mass density=324.5 kg/m3 | 353.72 ± 11 J/K/mol
507.65 K, Mass density=343.1 kg/m3 | 339.78 ± 10 J/K/mol
507.69 K, Mass density=329.2 kg/m3 | 354.86 ± 11 J/K/mol
507.7 K, Mass density=329.2 kg/m3 | 347.95 ± 10 J/K/mol
507.73 K, Mass density=293.3 kg/m3 | 369.4 ± 11 J/K/mol
507.73 K, Mass density=324.5 kg/m3 | 360.99 ± 11 J/K/mol
507.82 K, Mass density=274 kg/m3 | 385.09 ± 12 J/K/mol
507.82 K, Mass density=293.3 kg/m3 | 371.39 ± 11 J/K/mol
507.82 K, Mass density=324.5 kg/m3 | 358.53 ± 11 J/K/mol
507.82 K, Mass density=343.1 kg/m3 | 338.76 ± 10 J/K/mol
507.89 K, Mass density=329.2 kg/m3 | 352.76 ± 11 J/K/mol
507.91 K, Mass density=274 kg/m3 | 385.33 ± 12 J/K/mol
507.91 K, Mass density=293.3 kg/m3 | 375.83 ± 11 J/K/mol
507.91 K, Mass density=324.5 kg/m3 | 365.2 ± 11 J/K/mol
507.91 K, Mass density=343.1 kg/m3 | 340.98 ± 10 J/K/mol
507.95 K, Mass density=343.1 kg/m3 | 342.54 ± 10 J/K/mol and 212.44 ± 6.4 J/K/mol
508.01 K, Mass density=234.3 kg/m3 | 436.29 ± 13 J/K/mol
508.01 K, Mass density=255.8 kg/m3 | 424.87 ± 13 J/K/mol
508.01 K, Mass density=274 kg/m3 | 393.86 ± 12 J/K/mol
508.01 K, Mass density=293.3 kg/m3 | 380.52 ± 11 J/K/mol
508.01 K, Mass density=324.5 kg/m3 | 363.27 ± 11 J/K/mol
508.01 K, Mass density=343.1 kg/m3 | 205.52 ± 6.2 J/K/mol
508.04 K, Mass density=329.2 kg/m3 | 358.17 ± 11 J/K/mol
508.1 K, Mass density=234.3 kg/m3 | 442.3 ± 13 J/K/mol
508.1 K, Mass density=255.8 kg/m3 | 425.65 ± 13 J/K/mol
508.1 K, Mass density=266.3 kg/m3 | 412.31 ± 12 J/K/mol
508.1 K, Mass density=274 kg/m3 | 396.93 ± 12 J/K/mol
508.1 K, Mass density=281.9 kg/m3 | 391.7 ± 12 J/K/mol
508.1 K, Mass density=293.3 kg/m3 | 381.6 ± 11 J/K/mol
508.1 K, Mass density=324.5 kg/m3 | 367.06 ± 11 J/K/mol
508.1 K, Mass density=343.1 kg/m3 | 191.64 ± 5.8 J/K/mol
508.16 K, Mass density=329.2 kg/m3 | 363.76 ± 11 J/K/mol and 218.14 ± 6.6 J/K/mol
508.18 K, Mass density=329.2 kg/m3 | 208.53 ± 6.2 J/K/mol
508.19 K, Mass density=234.3 kg/m3 | 447.71 ± 13 J/K/mol
508.19 K, Mass density=255.8 kg/m3 | 429.38 ± 13 J/K/mol
508.19 K, Mass density=266.3 kg/m3 | 417.66 ± 13 J/K/mol
508.19 K, Mass density=274 kg/m3 | 404.38 ± 12 J/K/mol
508.19 K, Mass density=281.9 kg/m3 | 398.49 ± 12 J/K/mol
508.19 K, Mass density=288.99 kg/m3 | 390.74 ± 12 J/K/mol
508.19 K, Mass density=293.3 kg/m3 | 383.29 ± 11 J/K/mol
508.19 K, Mass density=324.5 kg/m3 | 370.25 ± 11 J/K/mol
508.19 K, Mass density=343.1 kg/m3 | 187.98 ± 5.6 J/K/mol
508.28 K, Mass density=234.3 kg/m3 | 453.36 ± 14 J/K/mol
508.28 K, Mass density=255.8 kg/m3 | 438.99 ± 13 J/K/mol
508.28 K, Mass density=266.3 kg/m3 | 426.19 ± 13 J/K/mol
508.28 K, Mass density=274 kg/m3 | 414.84 ± 12 J/K/mol
508.28 K, Mass density=281.9 kg/m3 | 409.07 ± 12 J/K/mol
508.28 K, Mass density=288.99 kg/m3 | 395.61 ± 12 J/K/mol
508.28 K, Mass density=293.3 kg/m3 | 391.22 ± 12 J/K/mol
508.28 K, Mass density=324.5 kg/m3 | 371.75 ± 11 J/K/mol and 221.39 ± 6.7 J/K/mol
508.28 K, Mass density=329.2 kg/m3 | 195.91 ± 5.9 J/K/mol
508.29 K, Mass density=343.1 kg/m3 | 181.07 ± 5.5 J/K/mol
508.34 K, Mass density=324.5 kg/m3 | 214 ± 6.4 J/K/mol
508.37 K, Mass density=329.2 kg/m3 | 192.6 ± 5.8 J/K/mol
508.38 K, Mass density=234.3 kg/m3 | 464.9 ± 14 J/K/mol
508.38 K, Mass density=255.8 kg/m3 | 446.27 ± 13 J/K/mol
508.38 K, Mass density=266.3 kg/m3 | 435.27 ± 13 J/K/mol

Liquid
Settings | molar heat capacity at constant volume [J/K/mol]
507.95 K | 212.44 ± 6.5
508.16 K | 218.14 ± 7
508.28 K | 221.39 ± 7
